Test results taken from patent US20250296961A1, “ANTIMICROBIAL PEPTIDES FOR REMINERALIZATION OF TEETH AND PREVENTION OF DENTAL CARIES” (The University of Hong Kong, priority 2021, published 2025).

What was measured:
S. mutans [1] = assay: Anti-planktonic bacterial ability, MIC and MBC (Example 1); format: cell-based, Streptococcus mutans (ATCC 35668)
Method: Streptococcus mutans (ATCC 35668, ATCC, Manassas, USA) were cultured in Horse Blood Medium under anaerobic (85% N2, 10% H2, and 5% CO2) conditions at 37° C. Cells were harvested by centrifugation (5000 rpm, 10 min), washed once with 10 mM sodium phosphate-buffered saline (PBS, pH 7.2), and resuspended in brain-heart infusion broth (BHI, Difco Laboratories, Detroit, USA) at a concentration of 10^6 CFU/mL.
Two-fold serial dilutions (in 10 mM HEPES) of P-113, P-113-DPS, P-113-DA, P-113-SK, and Sp-H5 prepared in 25% BHI medium were pipetted into a 96-well cell culture plate at final concentrations from 0.125-128 μmol/mL [100 μL/well]. Each well was seeded with 10 μL bacterial suspension at a final concentration of 10^6 CFU/mL. Sp-H5 with bacterial cells and 25% BHI medium with and without bacterial cells in 10 mM HEPES buffer (pH 7) were used as the positive, negative, and blank control group, respectively. After a 24-h incubation, absorbance was measured at 595 nm using a microplate reader to assess cell growth. […] The minimal bactericidal concentration (MBC) was defined as the lowest concentration of peptide resulting in no colony formation on agar plates after incubation. 10 μL of cell suspension from each well were plated on horse blood agar plates and incubated at 37° C. for 48 h. All determinations were conducted in triplicate experiments.

[2] = Demineralization assay of peptide-coated enamel (Example 1); parameters: species or system human; conditions: demineralization solution 7 days
Method: (§1) 3×3×1.5 mm^3 (number: 197) tooth slices were prepared using a water-cooled diamond saw (IsoMet low-speed saw, Buehler, Lake Bluff, IL, USA). One working surface of complete enamel tissue from each tooth slice was generated using the MicroCT Skyscan 1172 (Bruker MicroCT, Kontich, Belgium). The enamel working side of the tooth slice was polished and other sides marked with acid-proof nail polish. All tooth slices were cleaned and stored in deionized water at 4° C.
Tooth slices (N=30) were immersed in 8 μmol/mL P-113, P-113-DPS, P-113-DA, P-113-SK, Sp-H5 (n=5 for each) solutions (in 10 mM HEPES) or HEPES (control) overnight. Tooth slices were incubated in 2 mL demineralization solution (2.2 mM CaCl2), 2.2 mM NaH2PO4, 0.05 M acetic acid, pH 4.5) for 7 days at 37° C. Lesions depths were analyzed by MicroCT Skyscan 1172. Mineral calcium (Ca) or phosphorus (P) concentrations before and after immersion were measured using Inductively Coupled Plasma Optical Emission Spectrometer (ICP-OES; Spectro Arcos, Kleve, Germany). Ca/P loss was expressed as mM/cm^2. The mean values of Ca/P loss were analyzed for each group using ANOVA at the 1% c significance level.

S. mutans [3] = assay: Anti-planktonic bacterial ability, MBC (Example 2); format: cell-based, S. mutans (ATCC 35668)
Method: S. mutans (ATCC 35668, ATCC, Manassas, USA), S. gordonii (ATCC 35105, ATCC, Manassas, USA), and S. sanguinis (ATCC 10556, ATCC, Manassas, USA) strains were cultured in brain-heart infusion broth (BHI, Difco Laboratories, Detroit, USA) at 37° C. under anaerobic conditions (85% N2, 10% H2, and 5% CO2). Bacteria were harvested by centrifugation (5000 rpm, 10 min), washed once with sodium phosphate-buffered saline (PBS, 10 mM, pH=7.2), and resuspended in BHI at a concentration of 1×10^6 CFU mL^−1.
Each well was seeded with 10 μL S. mutans suspension, S. gordonii suspension, and S. sanguinis suspension, respectively. […] The bacterial growth was assessed by measuring the absorbance at 595 nm using a microplate reader after a 24-hour incubation. Subsequently, 10 μL of bacterial suspension from each well were plated on horse blood agar plates and incubated at 37° C. for 48 h. The antibacterial activities of AMPs were evaluated.

[4] = Adsorption time assay on tooth enamel (Micro BCA); format: binding, human; conditions: 10 nmol/mL peptide, 37° C.
Method: as §1
Adsorption Time Assay The adsorption time of peptides to the tooth enamel was also tested using the Micro BCA method. Solutions of P-113, P-113-DPS, P-113-DA, and P-113-SK in 10 mM HEPES buffer (pH 7) were diluted to 10 nmol/mL. Enamel working surfaces of tooth slices (N=20) were exposed to P-113 solution (n=5), P-113-DPS solution (n=5), P-113-DA solution (n=5), and P-113-SK solution (n=5), respectively. The remaining extraneous surfaces were covered with wax. Tubes were placed into a rotator at 37° C. […] After a 30-min incubation, absorbance was measured. A function of C=a*A+b was determined (a and b are constants). The concentrations of the peptide solution at different time points (C0, C1, C2, C3, C4, and C5 at 0, 5, 20, 40, 60, and 120 min, respectively) were computed based on absorbances […].

AKRHHGYKRKFH [Peptide P-113, non-specific AMP, portion of human histatin 5]
MBC (S. mutans [1]): >128 μM mL^−1 | MIC (S. mutans [1]; 24 h): 32 μM mL^−1 | Maximum lesion depth ([2]; 8 μmol/mL coating, MicroCT): 115 μm | Ca losses vs control group [2]: Significant differences were not detected | MBC, S. mutans (S. mutans [3]): >128 μM mL^−1 | Adsorption time on enamel (majority of adsorption / significant decrease in concentration) [4]: 60 min
